Assay results published in the supplement of paper PMC10307832.

Experiments:
Test in all cases: relative viability (nuclei count vs DMSO), 5 days (fraction); higher = more cells survive
[1] = compound: CC1(C)CCC(CN2CCN(c3ccc(C(=O)NS(=O)(=O)c4ccc(NCC5CCOCC5)c([N+](=O)[O-])c4)c(Oc4cnc5[nH]ccc5c4)c3)CC2)=C(c2ccc(Cl)cc2)C1 [Venetoclax] + CCNC(=O)c1noc(-c2cc(C(C)C)c(O)cc2O)c1-c1ccc(CN2CCOCC2)cc1 [Luminespib] (partner 0.01 µM)
Summary of the method: (§1)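 Nuclei were stained with Hoechst during a one-step fixation (final 0.05% Triton X-100, 1% formaldehyde, 1 ug/ml Hoechst) carried out 5 days after dosing, then counted on 4× images. The cells, lung cancer lines in 1536-well plates, had been dosed by pin tool the day after seeding with one drug alone or a fixed anchor-drug dose plus five library-drug doses (not always all listed) in √10 steps. Relative viability is the nuclei count in treated wells divided by that in vehicle wells, and each value is the median of duplicate plates.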

[2] = compound: CC1(C)CCC(CN2CCN(c3ccc(C(=O)NS(=O)(=O)c4ccc(NCC5CCOCC5)c([N+](=O)[O-])c4)c(Oc4cnc5[nH]ccc5c4)c3)CC2)=C(c2ccc(Cl)cc2)C1 [Venetoclax] + CS(=O)(=O)N1CCN(Cc2cc3nc(-c4cccc5[nH]ncc45)nc(N4CCOCC4)c3s2)CC1 [Pictilisib] (partner 1 µM)
Summary of the method: as §1

[3] = compound: Cn1cnc2c(F)c(Nc3ccc(Br)cc3Cl)c(C(=O)NOCCO)cc21 [Selumetinib] + NC(=O)Nc1cc(-c2cccc(F)c2)sc1C(=O)N[C@H]1CCCNC1 [AZD7762] (partner 0.2 µM)
Summary of the method: as §1

[4] = compound: Cn1cnc2c(F)c(Nc3ccc(Br)cc3Cl)c(C(=O)NOCCO)cc21 [Selumetinib] + COc1cccc2cc(-c3nc([C@H]4CC[C@H](C(=O)O)CC4)n4ncnc(N)c34)[nH]c12 [OSI-027] (partner 0.5 µM)
Summary of the method: as §1

Cell Line	relative viability ([1]; first compound 0.01 µM)	relative viability ([1]; first compound 0.03162 µM)	relative viability ([1]; first compound 0.1 µM)	relative viability ([1]; first compound 0.3162 µM)	relative viability ([1]; first compound 1 µM)	relative viability ([2]; first compound 0.01 µM)	relative viability ([2]; first compound 0.03162 µM)	relative viability ([2]; first compound 0.1 µM)	relative viability ([2]; first compound 0.3162 µM)	relative viability ([2]; first compound 1 µM)	relative viability ([3]; first compound 0.02 µM)	relative viability ([3]; first compound 0.06325 µM)	relative viability ([3]; first compound 0.2 µM)	relative viability ([3]; first compound 0.6325 µM)	relative viability ([4]; first compound 0.02 µM)	relative viability ([4]; first compound 0.06325 µM)	relative viability ([4]; first compound 0.2 µM)	relative viability ([4]; first compound 0.6325 µM)
NCI-H1666	0.894	1.08	0.953	0.973	0.996	0.457	0.448	0.42	0.439	0.534	0.853	0.758	0.759	0.732	0.909	0.717	0.793	0.717
NCI-H1734	0.184	0.188	0.244	0.204	0.224	0.507	0.508	0.398	0.513	0.488	0.512	0.5	0.495	0.515	0.557	0.635	0.539	0.537
NCI-H1755	0.534	0.452	0.556	0.348	0.55	0.346	0.482	0.398	0.449	0.465	0.522	0.352	0.393	0.451	0.745	0.698	0.681	0.673
NCI-H1792	0.381	0.492	0.329	0.374	0.375	0.228	0.306	0.161	0.262	0.278	0.571	0.447	0.417	0.393	0.761	0.727	0.67	0.611
NCI-H1793	0.152	0.194	0.164	0.19	0.162	0.371	0.445	0.328	0.241	0.321	0.408	0.394	0.406	0.297	0.251	0.243	0.231	0.258
NCI-H1915	0.745	0.808	0.708	0.699	0.695	0.953	0.911	0.894	0.979	0.92	0.81	0.663	0.646	0.453	0.603	0.425	0.33	0.301
NCI-H1944	0.992	0.787	0.775	0.879	0.696	0.369	0.37	0.355	0.383	0.36	0.448	0.438	0.401	0.427	0.4	0.391	0.337	0.335
NCI-H1975	0.241	0.212	0.191	0.172	0.251	0.351	0.33	0.258	0.284	0.282	0.69	0.599	0.662	0.527	0.8	0.57	0.676	0.527
